# Measured values from US8324222B2, “Cyclically substituted furopyrimidine derivatives and use thereof” (Bayer Intellectual Property GmbH, priority 2005, dated 2012).
# Target: T1, prostacyclin receptors (IP receptors) of human thrombocyte membranes (Homo sapiens, UniProt P43119)
# T1 construct: 300-1000 μg/ml human thrombocyte membranes per charge; tissue Maco Pharma, Langen (buffy coats); host or cells: human thrombocyte (platelet) membranes prepared from human blood buffy coats
# Test: Binding to prostacyclin receptors (IP receptors) of human thrombocyte membranes (3H-Iloprost displacement)
# Conditions: 3 nM 3H-Iloprost, 60 min, room temperature
# Protocol: B-1. Studies of Binding to Prostacyclin Receptors (IP Receptors) of Human Thrombocyte Membranes
# Thrombocyte membranes are obtained by centrifuging 50 ml human blood (Buffy coats with CDP Stabilizer, from Maco Pharma, Langen) for 20 min at 160×g. Remove the supernatant (platelet-rich plasma, PRP) and then centrifuge again at 2000×g for 10 min at room temperature. Resuspend the sediment in 50 mM tris-(hydroxymethyl)-aminomethane, which has been adjusted to a pH of 7.4 with 1 N hydrochloric acid, and store at −20° C. overnight. On the next day, centrifuge the suspension at 80000×g and 4° C. for 30 minDiscard the supernatant. Resuspend the sediment in 50 mM tris-(hydroxymethyl)-aminomethane/hydrochloric acid, 0.25 mM ethylene diamine tetraacetic acid (EDTA), pH 7.4, and then centrifuge once again at 80000×g and 4° C. for 30 min. Take up the membrane sediment in binding buffer (50 mM tris-(hydroxymethyl)-aminomethane/hydrochloric acid, 5 mM magnesium chloride, pH 7.4) and store at −70° C. until the binding test.
# For the binding test, incubate 3.nM ^3H-Iloprost (592 GBq/mmol, from AmershamBioscience) for 60 min with 300-1000 μg/ml human thrombocyte membranes per charge (max. 0.2 ml) in the presence of the test substances at room temperature. After stopping, add cold binding buffer to the membranes and wash with 0.1% bovine serum albumin. After adding Ultima Gold Scintillator, quantify the radioactivity bound to the membranes using a scintillation counter. The nonspecific binding is defined as radioactivity in the presence of 1 μM Iloprost (from Cayman Chemical, Ann Arbor) and is as a rule <25% of the bound total radioactivity. The binding data (IC50 values) are determined using the program GraphPad Prism Version 3.02.
# T1 sequence (P43119 whole entry): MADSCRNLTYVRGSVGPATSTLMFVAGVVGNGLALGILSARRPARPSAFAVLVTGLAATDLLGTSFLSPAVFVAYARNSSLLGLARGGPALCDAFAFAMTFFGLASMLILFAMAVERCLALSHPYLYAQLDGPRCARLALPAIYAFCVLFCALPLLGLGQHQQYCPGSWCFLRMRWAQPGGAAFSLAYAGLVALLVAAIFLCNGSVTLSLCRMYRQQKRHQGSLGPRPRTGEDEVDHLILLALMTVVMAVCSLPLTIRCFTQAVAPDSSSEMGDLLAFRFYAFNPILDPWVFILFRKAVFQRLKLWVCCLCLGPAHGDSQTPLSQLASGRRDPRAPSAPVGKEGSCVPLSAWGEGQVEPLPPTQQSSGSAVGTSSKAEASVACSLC
row,IC50 [nM],SMILES
1,34,"COc1ccc(-c2c(-c3ccccc3)oc3ncnc(O[C@H]4CCC[C@@H](OCC(=O)O)C4)c23)cc1 (single isomer, unassigned) [Example 68]"
2,237,"O=C(O)COc1cccc(Nc2ncnc3oc(-c4ccccc4)c(-c4ccc(F)cc4)c23)c1 [Example 6, 3-{[5-(4-Fluorophenyl)-6-phenylfuro[2,3-d]pyrimidin-4-yl]amino}phenoxyacetic acid]"
3,37,COc1ccc(-c2c(-c3ccccc3)oc3ncnc(O[C@H]4CC[C@H](OCC(=O)O)C4)c23)cc1 [Example 162]
4,388,"COc1ccc(-c2c(-c3ccccc3)oc3ncnc(O[C@H]4CCC[C@@H](OCC(=O)O)C4)c23)cc1 (single isomer, unassigned) [Example 67]"
5,152,COc1ccc(-c2c(-c3ccccc3)oc3ncnc(OC4CCCN(CCCC(=O)O)C4)c23)cc1 (centres unmarked) [Example 84]
6,18,"COc1ccc(-c2c(-c3ccccc3)oc3ncnc(Nc4cccc(OCC(=O)O)c4)c23)cc1 [Example 10, 3-{[5-(4-Methoxyphenyl)-6-phenylfuro[2,3-d]pyrimidin-4-yl]amino}phenoxyacetic acid]"
7,218,"COC(=O)CCCN1CCC[C@@H](Oc2ncnc3oc(-c4ccccc4F)c(-c4ccc(OC)cc4)c23)C1 [Example 183, 4-[(3R)-3-{[6-(2-Fluorophenyl)-5-(4-methoxyphenyl)furo[2,3-d]pyrimidin-4-yl]oxy}piperidin-1-yl]butyric acid methyl ester]"
8,20,CCc1ccc(-c2c(-c3ccccc3)oc3ncnc(N[C@H]4CCC[C@H](OCC(=O)O)C4)c23)cc1 (racemic) [Example 146]
9,71,COc1ccc(-c2c(-c3ccccc3)oc3ncnc(N[C@H]4CC[C@@H](OCC(=O)O)C4)c23)cc1 [Example 168]
10,13,CCc1ccc(-c2c(-c3ccccc3)oc3ncnc(O[C@@H]4C=C[C@@H](OCC(=O)O)C4)c23)cc1 [Example 175]
11,27,"CCc1ccc(-c2c(-c3ccccc3F)oc3ncnc(O[C@@H]4CCCN(CCCC(=O)O)C4)c23)cc1 [Example 181, 4-[(3R)-3-{[5-(4-Ethylphenyl)-6-(2-fluorophenyl)furo[2,3-d]pyrimidin-4-yl]oxy}piperidin-1-yl]-butyric acid]"
12,28,CCc1ccc(-c2c(-c3ccccc3)oc3ncnc(O[C@@H]4CCCN(CCCC(=O)O)C4)c23)cc1 [Example 154]
13,8,COc1ccc(-c2c(-c3ccccc3)oc3ncnc(O[C@H]4CCC[C@H](OCC(=O)O)C4)c23)cc1 (racemic) [Example 69]
14,6,COc1ccc(-c2c(-c3ccccc3)oc3ncnc(N[C@@H]4CC[C@@H](OCC(=O)O)C4)c23)cc1 [Example 170]
15,24,CCc1ccc(-c2c(-c3ccccc3)oc3ncnc(N[C@@H]4C=C[C@@H](OCC(=O)O)C4)c23)cc1 [Example 176]
16,83,"CCc1ccc(-c2c(-c3ccccc3)oc3ncnc(O[C@@H]4CCCN(CCCC(=O)O)C4)c23)cc1F (single isomer, unassigned) [Example 159]"
17,293,O=C(O)CO[C@@H]1CCC[C@H](Oc2ncnc3oc(-c4ccccc4)c(-c4ccc(Cl)cc4)c23)C1 [Example 156]
18,34,COc1ccc(-c2c(-c3ccccc3)oc3ncnc(O[C@@H]4CCCN(CCc5nnn[nH]5)C4)c23)cc1 [Example 99]
19,43,"COC(=O)COc1cccc(Nc2ncnc3oc(-c4ccccc4)c(-c4ccc(OC)cc4)c23)c1 [Example 9, 3-{[5-(4-methoxyphenyl)-6-phenylfuro[2,3-d]pyrimidin-4-yl]amino}phenoxyacetic acid methyl ester]"
20,17,COc1ccc(-c2c(-c3ccccc3)oc3ncnc(N[C@H]4CCC[C@H](OCC(=O)O)C4)c23)cc1 [Example 87]
21,15,"COc1ccc(-c2c(-c3ccccc3)oc3ncnc(Oc4ccc(CCC(=O)O)cc4)c23)cc1 [Example 24, 3-(4-{[5-(4-Methoxyphenyl)-6-phenylfuro[2,3-d]pyrimidin-4-yl]oxy}phenyl)propanoic acid]"
22,11,"COc1ccc(-c2c(-c3ccccc3)oc3ncnc(Nc4cccc(/C=C/C(=O)O)c4)c23)cc1 [Example 21, (2E)-3-(3-{[5-(4-Methoxyphenyl)-6-phenylfuro[2,3-d]pyrimidin-4-yl]amino}phenyl)acrylic acid]"

# System: not given
# Test: not given
# Conditions: rapid non-enzymatic transformation to inactive metabolite 6-keto-prostaglandin-F1alpha; cited from earlier work
row,SMILES,half-life
1,"CCCCC[C@H](O)/C=C/[C@@H]1[C@H]2C/C(=C/CCCC(=O)O)O[C@H]2C[C@H]1O [PGI2, Prostacyclin]",approx. 3 minutes
